Measured values reported in patent publication US5618675A, “Methods and compositions for detecting lipopolysaccharides using CAP18 fragments” (Panorama Research, Inc., dated 1997).

Tested on: multiple drug-resistant Mycobacterium tuberculosis
Assay: Antimicrobial activity
Format: cell-based
Details: range 0-20 μg/ml

RNIP: reactive nitrogen inhibitory protein, amino acids 135-171 of SEQ ID NO:4 (rabbit CAP18 C-terminus); purified from granulocytes or synthetic (#197) (GLRKRLRKFRNKIKEKLKKIGQKIQGLLPKLAPRTDY)
activity versus multiple drug-resistant Mycobacterium tuberculosis: inactive

36-1: synthetic rabbit RNIP-derived fragment, amino acids 135-166 of SEQ ID NO:4 (GLRKRLRKFRNKIKEKLKKIGQKIQGLLPKLA)
activity versus multiple drug-resistant Mycobacterium tuberculosis: inactive
